This is an account of results in patent US9833510B2, “Modified release solid or semi-solid dosage forms” (Johnson & Johnson Consumer Inc., priority 2007, dated 2017).

The nature of data set [1]: typical duration of action (period of therapeutic effect) of an immediate release dose, from product labeling. The format is in vivo. The conditions noted are these: for ATDAIRD (average therapeutic duration of action of an effective immediate release dose): average of typical duration range; for ATDAIRD: as restated, unit not given. From the text:
As used herein, “ATDAIRD” shall mean the average therapeutic duration of action of an effective immediate release dose” of a particular active ingredient. […] The therapeutic duration of action of a particular active ingredient can readily be determined from the dosing instructions in the labeling for immediate release products containing that particular active ingredient.

The conditions of data set [2]: background statement; typically administered every 2 to 4 hours; cited from earlier work.

Structures can show the parent of a compound that is named as a salt.

Take `CC(C)Cc1ccc(C(C)C(=O)O)cc1` (stereo not shown) [ibuprofen, 2-(4-isobutylphenyl)-propionic acid]: in data set [1], the “ATDAIRD (average therapeutic duration of action of an effective immediate release dose)” value stood at 5 h.
Same read-out and setting: in the case of `CC(C(=O)O)c1cccc(C(=O)c2ccccc2)c1` (stereo not shown) [ketoprofen] it was 5 h.
Same read-out and setting: next, `COc1ccc2cc([C@H](C)C(=O)O)ccc2c1` [naproxen]: 10 h.
In the case of `CNC[C@H](O)c1cccc(O)c1` [phenylephrine hydrochloride], the “therapeutically effective plasma concentration (duration)” value in data set [2] is on record as “about 2.5 hours”.
For `CNC[C@H](O)c1cccc(O)c1` [phenylephrine, benzynemethanol, 3-hydroxy-α-[(methylamino)methyl]], in data set [1], the ATDAIRD result was “about 3” and the “ATDAIRD (average therapeutic duration of action of an effective immediate release dose)” value came out at 3 h.
For the compound `CN[C@@H](C)[C@@H](O)c1ccccc1` [psuedoephedrine], the ATDAIRD entry in data set [1] was “about 3”.
